What is called half-life is the time needed for the level to fall by half in the phase considered. Read a high half-life as slow decline. Broadly, the logP is a log measure of how a compound divides between an organic and an aqueous phase. Broadly, the pIC50 is −log10 of the IC50, conventionally taken in molar units. Broadly, the pEC50 is the EC50 on a negative log10 scale, so that one unit is a factor of ten. In general, IC90 refers to the point of the concentration-response curve where the effect stands at 90%. High values mean weaker potency, low ones greater potency. What is called bioavailability is dose-corrected exposure relative to a reference, in per cent. Higher therefore signals much systemic uptake. By Cmax is commonly meant the highest concentration seen after dosing. One may read the Tmax as the time at which the peak concentration occurs.

These results are taken from ChEMBL document CHEMBL4393650, “The Journey of HIV-1 Non-Nucleoside Reverse Transcriptase Inhibitors (NNRTIs) from Lab to Clinic” (J Med Chem, 2019).

Structures are written as SMILES. pEC50, pIC50: −log10 of the molar value.

Series [1] can be described thus: Half life in human serum at 25 mg, qd. It counts as ADME, cell-free.
The target of series [2] is Human immunodeficiency virus type 1 reverse transcriptase (Human immunodeficiency virus 1) (UniProt Q72547). Put plainly: Inhibition of HIV1 3B reverse transcriptase infected in human PBMC cells after 4 days. The series is classed as cell-based.
The nature of series [3]: Lipophilicity, log P of the compound. The series is classed as physicochemical. To be noted: octanol/water.
A short description of series [4]: Half life in human serum at 400 mg, qd. The series is classed as ADME, cell-free.
In series [5] the target is T1, Human immunodeficiency virus type 1 reverse transcriptase (Human immunodeficiency virus 1, UniProt Q72547). Put plainly: Inhibition of HIV1 reverse transcriptase.
The test system of series [6] is Human immunodeficiency virus 1. Put plainly: Antiviral activity against HIV1 assessed as serum adjusted potency. The series is classed as functional, organism-based.
The test system of series [7] is Human immunodeficiency virus 1. The series can be described thus: Antiviral activity against HIV1. The series is classed as functional, organism-based.
The target of series [8] is Human immunodeficiency virus type 1 reverse transcriptase (Human immunodeficiency virus 1) (UniProt Q72547).
The test system of series [9] is Human immunodeficiency virus 1. Put plainly: Antiviral activity against HIV1 subtype B. It counts as functional, organism-based. To be noted: Human immunodeficiency virus 1, subtype B.
A short description of series [10]: Oral bioavailability in human. To be noted: in vivo. The series is classed as ADME, organism-based.
Series [11] is described as follows: Half life in human serum at 200 mg, bid. The series is classed as ADME, cell-free.
Series [12] is described as follows: Half life in human serum at 100 mg, qd. The series is classed as ADME, cell-free.
Series [13] in a line: Half life in human serum at 600 mg, qd. The series is classed as ADME, cell-free.
The target in series [14] is T1, Human immunodeficiency virus type 1 reverse transcriptase. Put plainly: Inhibition of HIV1 reverse transcriptase derived from HIV patient plasma by LC/MS/MS analysis.
Series [15] can be described thus: Cmax in rat. The series is classed as ADME. Particulars: in vivo.
A short description of series [16]: Tmax in rat. It counts as ADME. To be noted: in vivo.
Series [17] can be described thus: Cmax in Beagle dog. It counts as ADME, Canis lupus familiaris. Particulars: in vivo.
For series [18], the target named is T1, Human immunodeficiency virus type 1 reverse transcriptase. The series can be described thus: Inhibition of wild type recombinant HIV1 reverse transcriptase using poly(rA)-oligo(dT) as template/primer.

Compound `Cc1cc(/C=C/C#N)cc(C)c1Nc1ccnc(Nc2ccc(C#N)cc2)n1` [RILPIVIRINE] showed a half-life in series [1] of 50 h.

In [2], `CC(C)Nc1cccnc1N1CCN(C(=O)c2cc3ccccc3[nH]2)CC1` registered an ED50 of 0.3 µM. In turn, `CCNc1cccnc1N1CCN(C(=O)c2cc(C)c(OC)c(C)c2)CC1` showed an ED50 in [2] of 2 µM. For the same compound, in series [3], the logP turned out to be 3.3. In [4], `CC(C)Nc1cccnc1N1CCN(C(=O)c2cc3cc(NS(C)(=O)=O)ccc3[nH]2)CC1` [DELAVIRDINE] returned a half-life of 2 to 11 h. `CCOC1(c2ccccc2)c2cc(Cl)ccc2NC(=S)N1C` (centres undefined) showed a pIC50 in series [5] of 7.25. In the case of `N#Cc1cc(Cl)cc(Oc2c(Br)ccc(CC(=O)Nc3ccc(S(N)(=O)=O)cc3Cl)c2F)c1` [DEPULFAVIRINE], the pEC50 in series [6] was 7.86; in [7], 8.92. In [8], `O=C1Nc2ccc(Cc3ccccc3)cc2[C@@](C#CC2CC2)(C(F)(F)F)O1` came in with an IC90 of 0.279 µM. The compound `Cc1cn([C@H]2C[C@H](N=[N+]=[N-])[C@@H](CO)O2)c(=O)[nH]c1=O` gave an ED50 in series [2] of 0.07 µM. Turning to `CCN1c2ncccc2C(=O)N(C)c2cccnc21`, the logP in series [3] worked out at 1.84.

Take `CCN1c2ncccc2C(=O)Nc2c(C)ccnc21`: the logP in series [3] was determined as 2.09. In turn, `Cc1cc(/C=C/C#N)cc(F)c1Nc1ccc(F)c(Nc2ccc(C#N)cc2)n1` showed a pEC50 in series [9] of 3.00. `CC1O[C@](/C=C/C2CC2)(C(F)(F)F)c2cc(Cl)ccc2NC1=O` (some centres undefined) showed a pIC50 in series [5] of 7.34.

`Cc1ccnc2c1NC(=O)c1cccnc1N2C1CC1` [NEVIRAPINE]: in series [10], the bioavailability stood at 95%. Also, the half-life in series [11] fell in the range of 25 to 30 h. In addition, the logP in series [3] was 2.05. `Cn1c(Cn2ccc(C(F)(F)F)c(Oc3cc(Cl)cc(C#N)c3)c2=O)n[nH]c1=O` [DORAVIRINE] registered a half-life in series [12] of 11 to 15 h. Regarding `COc1ccc2[nH]c(C(=O)N3CCN(c4ncccc4NC(C)C)CC3)cc2c1`, the ED50 in series [2] stood at 0.3 µM. For the compound `NC(=O)c1[nH]c2ccccc2c1S(=O)(=O)c1ccccc1`, in series [9], the pEC50 is 3.74.

In [3], `Cc1ccnc2c1NC(=O)c1cccnc1N2` registered a logP of 1.52. With `NC(=O)c1[nH]c2cccc(Cl)c2c1S(=O)(=O)c1ccccc1`, the negative-log EC50 (pEC50) in series [9] was 6.00. In series [3], `O=C1Nc2ccccc2Nc2ncccc21` came in with a logP of 1.65. For `O=C1Nc2ccc(Cl)cc2[C@@](C#CC2CC2)(C(F)(F)F)O1` [EFAVIRENZ], the half-life in [13] was 40 to 55 h. On to `CC1O[C@](C#CC2CC2)(C(F)(F)F)c2cc(Cl)ccc2NC1=O` (some centres undefined), for which the pIC50 in series [5] was 7.09. In series [3], `CCN1c2ccccc2N(C)C(=O)c2cccnc21` displayed a logP of 2.46. Still for that read-out and setting: next, `O=C1Nc2cccnc2Nc2ncccc21`: 1.03. `CCNc1cccnc1N1CCN(C(=O)c2cc3ccccc3[nH]2)CC1` yielded an ED50 in series [2] of 0.3 µM.

As to `O=C1Nc2cccnc2Nc2ccccc21`, in series [14], the pIC50 is 5.22. `CCNc1cccnc1N1CCN(C(=O)c2cc3cc(OC)ccc3[nH]2)CC1.CS(=O)(=O)O` [ATEVIRDINE SULPHATE]: the Cmax in series [15] fell in the range of 4.6 to 17.4 µM; in [17], 16 to 33 µM. In addition, the time of peak concentration (Tmax) in series [16] was in the range of 0.5 to 1 h. In addition, in series [3], the logP worked out at 1.28. Consider `CCNc1cccnc1N1CCN(Cc2cc(C)c(OC)c(C)c2)CC1`, for which, in series [18], the pIC50 is 4.70. The compound also yielded an ED50 in series [2] of 2 µM.

For `CC(C)Nc1cccnc1N1CCN(C(=O)c2cc3cc(F)ccc3[nH]2)CC1`, in series [2], the ED50 was determined as 0.3 µM. Compound `Cc1cc(C#N)cc(C)c1Oc1nc(Nc2ccc(C#N)cc2)nc(N)c1Br` [ETRAVIRINE] gave a half-life in series [11] of 41 h. In turn, `Cc1cc(/C=C/C#N)cc(F)c1Nc1cccc(Nc2ccc(C#N)cc2)n1` gave a pEC50 in [9] of 2.26. `O=S1(c2ccccc2)=NC(=S)Nc2ccccc21` (centres undefined) gave a pIC50 in [5] of 5.29 to 6.02.
